From PMC9687286, “Hydrophobic Rose Bengal Derivatives Exhibit Submicromolar-to-Subnanomolar Activity against Enveloped Viruses” (Biomolecules, 2022)
Counter-ions that a name gives are not always drawn.

Key:
[1] = system: HIV-1 strain NL4-3; experiment: microbe, parasite or virus in culture; type: cell-based; settings: Human immunodeficiency virus 1, NL43, MT4, 168 h, read-out: EC50 (M ± SD), HIV
[2] = Cell viability assay for MT-4 cells; settings: human
[3] = system: SARS-CoV-2 strain PIK35; experiment: microbe, parasite or virus in culture; type: cell-based; settings: Severe acute respiratory syndrome coronavirus 2, Vero, read-out: EC50 (M ± SD), SARS-CoV-2
[4] = system: CHIKV strain Nic; experiment: microbe, parasite or virus in culture; type: cell-based; settings: Chikungunya virus, Vero, read-out: EC50 (M ± SD), CHIKV
[5] = system: Enterovirus A Coxsackievirus A16 (CVA16) isolate 49360; experiment: microbe, parasite or virus in culture; type: cell-based; settings: RD, 120 h, read-out: EC50 (M ± SD), CVA16
[6] = system: Enterovirus B Echovirus 13 (E13) isolate 57088; experiment: microbe, parasite or virus in culture; type: cell-based; settings: RD, 120 h, read-out: EC50 (M ± SD), E13
[7] = system: Enterovirus C vaccine strain Sabin 1 of poliovirus type 1 (PV1); experiment: microbe, parasite or virus in culture; type: cell-based; settings: RD, 120 h, read-out: EC50 (M ± SD), PV1
[8] = physchem; settings: aqueous with cosolvent or surfactant or cyclodextrin
[9] = Cell viability assay for RD cells; settings: human
[10] = Cell viability assay (resazurin) for Vero cells; settings: African green monkey, confluent Vero cell monolayers

SMILES | EC50 [1] [µM] | CC50 at 7 days [2] [µM] | EC50 [3] [µM] | EC50 [4] [nM] | EC50 [5] [µM] | EC50 [6] [µM] | EC50 [7] [µM] | solubility kinetic [8] [µM] | CC50 at 5 days [9] [µM] | CC50 at 5 days [10] [µM]
Cc1cn([C@H]2C[C@H](N=[N+]=[N-])[C@@H](CO)O2)c(=O)[nH]c1=O [AZT, azidothymidine, reference compound] | 0.01 | > 5 | – | – | – | – | – | – | – | –
CCCCCCOC(=O)c1c(Cl)c(Cl)c(Cl)c(Cl)c1-c1c2cc(I)c(=O)c(I)c-2oc2c(I)c(O)c(I)cc12 [2b, Rose Bengal N-Hexyl Ester, Monosodium Salt] | 4.4 ± 1.8 | 15 ± 4 | 0.4 ± 0.3 | 0.7 ± 0.3 | > 100 | > 100 | > 100 | 1 | 21.3 ± 5.2 | 60 ± 15
CCCCCCCCOC(=O)c1c(Cl)c(Cl)c(Cl)c(Cl)c1-c1c2cc(I)c(=O)c(I)c-2oc2c(I)c(O)c(I)cc12 [2c, Rose Bengal N-Octyl Ester, Monosodium Salt] | 8.8 ± 3.7 | 42 ± 10 | 5.3 ± 1.3 | 0.2 ± 0.1 | > 100 | > 100 | > 100 | – | 21.3 ± 5.2 | 53 ± 25
CCCCCCCCCCCCOC(=O)c1c(Cl)c(Cl)c(Cl)c(Cl)c1-c1c2cc(I)c(=O)c(I)c-2oc2c(I)c(O)c(I)cc12 [2e, Rose Bengal N-Dodecyl Ester, Monosodium Salt] | > 50 | > 50 | 43 ± 10 | 38 ± 30 | > 100 | > 100 | > 100 | – | 21.3 ± 5.2 | > 100
O=C(O)c1c(Cl)c(Cl)c(Cl)c(Cl)c1-c1c2cc(I)c(=O)c(I)c-2oc2c(I)c(O)c(I)cc12 [compound 1, Rose Bengal, disodium salt, reference compound] | 18 ± 7 | > 50 | 0.5 ± 0.2 | 110 ± 50 | > 100 | > 100 | > 100 | > 50 | 43 ± 10 | 43 ± 10
CCCCOC(=O)c1c(Cl)c(Cl)c(Cl)c(Cl)c1-c1c2cc(I)c(=O)c(I)c-2oc2c(I)c(O)c(I)cc12 [2a, Rose Bengal N-Butyl Ester, Monosodium Salt] | 6.3 ± 2.6 | 15 ± 4 | 0.05 ± 0.02 | 4 ± 2 | > 100 | > 100 | > 100 | 3.1 | 21.3 ± 5.2 | 8 ± 1
O=c1nc(NO)ccn1[C@@H]1O[C@H](CO)[C@@H](O)[C@H]1O [NHC, N^4-hydroxycytidine, reference compound] | – | – | 4.7 ± 2.9 | 23600 ± 10200 | 50 ± 18 | 17 ± 8 | 25 ± 10 | – | > 100 | > 100
CCCCCCCCCCOC(=O)c1c(Cl)c(Cl)c(Cl)c(Cl)c1-c1c2cc(I)c(=O)c(I)c-2oc2c(I)c(O)c(I)cc12 [2d, Rose Bengal N-Decyl Ester, Monosodium Salt] | 8.8 ± 2.6 | 42 ± 10 | 6.6 ± 3.1 | 2 ± 1 | > 100 | > 100 | > 100 | – | 10.7 ± 2.6 | 60 ± 15
